Reference: ChEMBL document CHEMBL1201862, “PubChem BioAssay data set” (2004)
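Following 48 hours of exposure in 96-well plates, responses at five concentrations were used to interpolate endpoints linearly. GI50: concentration for 50% inhibition of growth.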 The source made the active and inactive calls. No stated cut-off is given here; in the data, active = GI50 up to about 1.1 µM and inactive = higher.

How the values were obtained:
Test in all cases: DTP human tumour cell line panel, 48 h
XF498 = system: XF498
SNB-19 = system: SNB-19
HCT-116 = system: HCT-116
SK-MEL-5 = system: SK-MEL-5
UACC-62 = system: UACC-62
HOP-62 = system: HOP-62
U-251 = system: U-251
SNB-75 = system: SNB-75
M19-MEL = system: M19-MEL
KM12 = system: KM12
A549 = system: A549
HCT-15 = system: HCT-15
EKVX = system: EKVX
OVCAR-3 = system: OVCAR-3
SK-MEL-2 = system: SK-MEL-2
K562 = system: K562
UO-31 = system: UO-31
MOLT-4 = system: MOLT-4
HT-29 = system: HT-29
KM-20L2 = system: KM-20L2
OVCAR-4 = system: OVCAR-4
DLD-1 = system: DLD-1
TK-10 = system: TK-10
RXF 393 = system: RXF 393
NCI-H226 = system: NCI-H226
NCI-H460 = system: NCI-H460
M14 = system: M14
ACHN = system: ACHN
DMS-114 = system: DMS-114
SF-539 = system: SF-539
HL-60 = system: HL-60
LXFL 529 = system: LXFL 529
LOX IMVI = system: LOX IMVI
CCRF-CEM = system: CCRF-CEM
SF-295 = system: SF-295
786-0 = system: 786-0
DMS-273 = system: DMS-273
UACC-257 = system: UACC-257
NCI-H23 = system: NCI-H23
COLO 205 = system: COLO 205
SN12C = system: SN12C
SF-268 = system: SF-268
HOP-92 = system: HOP-92
SW-620 = system: SW-620
SR = system: SR
OVCAR-8 = system: OVCAR-8
IGROV-1 = system: IGROV-1
OVCAR-5 = system: OVCAR-5
CAKI-1 = system: CAKI-1
Malme-3M = system: Malme-3M
SK-OV-3 = system: SK-OV-3
SNB-78 = system: SNB-78
HCC 2998 = system: HCC 2998
SK-MEL-28 = system: SK-MEL-28
HOP-18 = system: HOP-18
A498 = system: A498
NCI-H522 = system: NCI-H522
RPMI-8226 = system: RPMI-8226
PC-3 = system: PC-3
BT-549 = system: BT-549
MDA-N = system: MDA-N
MDA-MB-231 = system: MDA-MB-231
NCI/ADR-RES = system: NCI/ADR-RES
T47D = system: T47D
MCF7 = system: MCF7
MDA-MB-435 = system: MDA-MB-435
Hs-578T = system: Hs-578T
DU-145 = system: DU-145

Cc1nn2c(nc1=O)sc1ccc3ccccc3c12
GI50 (XF498): > 100 µM (inactive) | GI50 (SNB-19): > 100 µM (inactive) | GI50 (HCT-116): > 100 µM (inactive) | GI50 (SK-MEL-5): > 100 µM (inactive) | GI50 (UACC-62): > 100 µM (inactive) | GI50 (HOP-62): > 100 µM (inactive) | GI50 (U-251): > 100 µM (inactive) | GI50 (SNB-75): > 100 µM (inactive) | GI50 (M19-MEL): > 100 µM (inactive) | GI50 (KM12): > 100 µM (inactive) | GI50 (A549): > 100 µM (inactive) | GI50 (HCT-15): > 100 µM | GI50 (EKVX): > 100 µM (inactive) | GI50 (OVCAR-3): > 100 µM (inactive) | GI50 (SK-MEL-2): > 100 µM (inactive) | GI50 (K562): > 100 µM (inactive) | GI50 (UO-31): > 100 µM (inactive) | GI50 (MOLT-4): > 100 µM (inactive) | GI50 (HT-29): > 100 µM (inactive) | GI50 (KM-20L2): > 100 µM (inactive) | GI50 (OVCAR-4): > 100 µM (inactive) | GI50 (DLD-1): > 100 µM (inactive) | GI50 (TK-10): > 100 µM (inactive) | GI50 (RXF 393): > 100 µM (inactive) | GI50 (NCI-H226): > 100 µM (inactive) | GI50 (NCI-H460): > 100 µM (inactive) | GI50 (M14): > 100 µM (inactive) | GI50 (ACHN): > 100 µM (inactive) | GI50 (DMS-114): > 100 µM (inactive) | GI50 (SF-539): > 100 µM (inactive) | GI50 (HL-60): > 100 µM (inactive) | GI50 (LXFL 529): > 100 µM (inactive) | GI50 (LOX IMVI): > 100 µM (inactive) | GI50 (CCRF-CEM): > 100 µM (inactive) | GI50 (SF-295): > 100 µM (inactive) | GI50 (786-0): > 100 µM (inactive) | GI50 (DMS-273): > 100 µM (inactive) | GI50 (UACC-257): > 100 µM (inactive) | GI50 (NCI-H23): > 100 µM (inactive) | GI50 (COLO 205): > 100 µM (inactive) | GI50 (SN12C): > 100 µM (inactive) | GI50 (SF-268): > 100 µM (inactive) | GI50 (HOP-92): > 100 µM (inactive) | GI50 (SW-620): > 100 µM (inactive) | GI50 (SR): > 100 µM (inactive) | GI50 (OVCAR-8): > 100 µM (inactive) | GI50 (IGROV-1): > 100 µM (inactive) | GI50 (OVCAR-5): > 100 µM (inactive) | GI50 (CAKI-1): > 100 µM (inactive) | GI50 (Malme-3M): > 100 µM (inactive) | GI50 (SK-OV-3): > 100 µM (inactive) | GI50 (SNB-78): > 100 µM (inactive) | GI50 (HCC 2998): > 100 µM (inactive) | GI50 (SK-MEL-28): > 100 µM (inactive) | GI50 (HOP-18): > 100 µM (inactive)

c1ccc2c3c([nH]c2c1)C1(CCCCC1)c1c([nH]c2ccccc12)C31CCCCC1
GI50 (XF498): > 100 µM (inactive) | GI50 (SNB-19): 54.5 µM (inactive) | GI50 (HCT-116): 15.7 µM (inactive) | GI50 (SK-MEL-5): 26.2 µM (inactive) | GI50 (UACC-62): 23.9 µM (inactive) | GI50 (A498): 24.2 µM (inactive) | GI50 (HOP-62): 19.5 µM (inactive) | GI50 (U-251): 30.2 µM (inactive) | GI50 (SNB-75): 15.9 µM (inactive) | GI50 (M19-MEL): 46 µM (inactive) | GI50 (KM12): > 100 µM (inactive) | GI50 (A549): 39.3 µM (inactive) | GI50 (HCT-15): > 100 µM | GI50 (EKVX): 26.2 µM (inactive) | GI50 (OVCAR-3): > 100 µM (inactive) | GI50 (SK-MEL-2): 18.8 µM (inactive) | GI50 (K562): 35.6 µM (inactive) | GI50 (NCI-H522): 30 µM (inactive) | GI50 (UO-31): 29 µM (inactive) | GI50 (MOLT-4): 47.5 µM (inactive) | GI50 (HT-29): > 100 µM (inactive) | GI50 (KM-20L2): 36.1 µM (inactive) | GI50 (OVCAR-4): 10.6 µM (inactive) | GI50 (DLD-1): 96.2 µM (inactive) | GI50 (TK-10): 30.9 µM (inactive) | GI50 (RXF 393): 25.4 µM (inactive) | GI50 (NCI-H226): 27.5 µM (inactive) | GI50 (NCI-H460): 34.7 µM (inactive) | GI50 (RPMI-8226): 56.8 µM (inactive) | GI50 (M14): 30 µM (inactive) | GI50 (ACHN): 17.5 µM (inactive) | GI50 (DMS-114): 31.3 µM (inactive) | GI50 (HL-60): > 100 µM (inactive) | GI50 (LXFL 529): 40.8 µM (inactive) | GI50 (LOX IMVI): 34.4 µM (inactive) | GI50 (CCRF-CEM): 79.8 µM (inactive) | GI50 (SF-295): 24.7 µM (inactive) | GI50 (786-0): 15.1 µM (inactive) | GI50 (DMS-273): 22.3 µM (inactive) | GI50 (UACC-257): 50.4 µM (inactive) | GI50 (NCI-H23): 31 µM (inactive) | GI50 (COLO 205): 37.9 µM (inactive) | GI50 (SN12C): 22.9 µM (inactive) | GI50 (SF-268): 23.6 µM (inactive) | GI50 (HOP-92): 20.4 µM (inactive) | GI50 (SW-620): > 100 µM (inactive) | GI50 (SR): 22.1 µM (inactive) | GI50 (OVCAR-8): 17.8 µM (inactive) | GI50 (IGROV-1): 31.3 µM (inactive) | GI50 (OVCAR-5): > 100 µM (inactive) | GI50 (CAKI-1): 38.6 µM (inactive) | GI50 (Malme-3M): 23.1 µM (inactive) | GI50 (SK-OV-3): 18.2 µM (inactive) | GI50 (SNB-78): 18.8 µM (inactive) | GI50 (HCC 2998): 32.3 µM (inactive) | GI50 (SK-MEL-28): 37.1 µM (inactive) | GI50 (HOP-18): 20.6 µM (inactive)

CN(C)c1n/c(=N/Cc2ccco2)ss1
GI50 (XF498): > 100 µM (inactive) | GI50 (SNB-19): 60.5 µM (inactive) | GI50 (PC-3): 15.5 µM (inactive) | GI50 (HCT-116): 8.97 µM (inactive) | GI50 (SK-MEL-5): 2.76 µM (inactive) | GI50 (UACC-62): 5.32 µM (inactive) | GI50 (A498): > 78 µM (inactive) | GI50 (HOP-62): 24.9 µM (inactive) | GI50 (U-251): 31.5 µM (inactive) | GI50 (SNB-75): 20.5 µM (inactive) | GI50 (M19-MEL): 5.05 µM (inactive) | GI50 (KM12): 3.72 µM (inactive) | GI50 (BT-549): 18.6 µM (inactive) | GI50 (A549): 15.6 µM (inactive) | GI50 (HCT-15): 21.3 µM | GI50 (EKVX): 37.9 µM (inactive) | GI50 (OVCAR-3): 8.97 µM (inactive) | GI50 (SK-MEL-2): > 21.1 µM (inactive) | GI50 (MDA-N): 16.6 µM (inactive) | GI50 (K562): 3.77 µM (inactive) | GI50 (NCI-H522): 0.307 µM (active) | GI50 (MDA-MB-231): 15.8 µM (inactive) | GI50 (UO-31): 28.8 µM (inactive) | GI50 (MOLT-4): 5.73 µM (inactive) | GI50 (HT-29): 2.44 µM (inactive) | GI50 (KM-20L2): > 100 µM (inactive) | GI50 (OVCAR-4): 30.3 µM (inactive) | GI50 (DLD-1): 14.2 µM (inactive) | GI50 (TK-10): 40 µM (inactive) | GI50 (RXF 393): 7.98 µM (inactive) | GI50 (NCI-H226): 62.2 µM (inactive) | GI50 (NCI/ADR-RES): 75.3 µM (inactive) | GI50 (NCI-H460): 10.9 µM (inactive) | GI50 (T47D): 14.3 µM (inactive) | GI50 (RPMI-8226): 1.79 µM (inactive) | GI50 (M14): 21 µM (inactive) | GI50 (ACHN): 25.9 µM (inactive) | GI50 (DMS-114): 3.33 µM (inactive) | GI50 (SF-539): 13 µM (inactive) | GI50 (HL-60): 1.59 µM (inactive) | GI50 (LXFL 529): 38.9 µM (inactive) | GI50 (LOX IMVI): 18.5 µM (inactive) | GI50 (CCRF-CEM): 1.43 µM (inactive) | GI50 (MCF7): 16.4 µM (inactive) | GI50 (SF-295): 37.2 µM (inactive) | GI50 (786-0): 3.65 µM (inactive) | GI50 (DMS-273): 4.53 µM (inactive) | GI50 (UACC-257): 46.5 µM (inactive) | GI50 (MDA-MB-435): 20.5 µM (inactive) | GI50 (NCI-H23): 25.6 µM (inactive) | GI50 (COLO 205): 2.06 µM (inactive) | GI50 (Hs-578T): 29.6 µM (inactive) | GI50 (SN12C): 31.6 µM (inactive) | GI50 (SF-268): 11.7 µM (inactive) | GI50 (SW-620): 26.2 µM (inactive) | GI50 (DU-145): > 66.5 µM (inactive) | GI50 (SR): 0.521 µM (active) | GI50 (OVCAR-8): 31.7 µM (inactive) | GI50 (IGROV-1): > 54.8 µM (inactive) | GI50 (OVCAR-5): > 40.5 µM (inactive) | GI50 (CAKI-1): 30.5 µM (inactive) | GI50 (Malme-3M): 18.7 µM (inactive) | GI50 (SK-OV-3): 55.6 µM (inactive) | GI50 (SNB-78): > 58.9 µM (inactive) | GI50 (HCC 2998): 52.8 µM (inactive) | GI50 (SK-MEL-28): 11.6 µM (inactive) | GI50 (HOP-18): > 100 µM (inactive)
